Data reported in article PMC6155662, “Trypanocidal Activity of Quinoxaline 1,4 Di-N-oxide Derivatives as Trypanothione Reductase Inhibitors” (Molecules : A Journal of Synthetic Chemistry and Natural …, 2017).
Read-outs that look alike come from different tables or passages of the source.

Tests used:
[1] = test system: T. cruzi bloodstream trypomastigotes INC-5 strain; assay: microbe, parasite or virus in culture; format: cell-based; conditions: for CC50: bloodstream trypomastigotes, 24 h at 4 °C (called IC50 in abstract), read-out: LC50 INC-5 Strain
Description: (§1) In this study, two strains of T. cruzi isolated in Mexico were used. T. cruzi NINOA strain (MHOM/MX/1994/NINOA) was obtained from a patient with acute Chagas disease and T. cruzi INC-5 (MHOM/MX/1994/INC5) was isolated from a patient in the chronic phase of the disease. Epimastigotes were cultured in vitro in liver infusion-tryptose (LIT) medium supplemented with 10% heat inactivated fetal bovine serum (FBS) (Gibco) and 100 U/mL penicillin-streptomycin (In vitro S.A.), and incubated at 27 °C. CD1 mice, aged 6–8 weeks, were infected with T. cruzi to obtain bloodstream trypomastigote samples. Animal experiments were performed according to Norma Oficial Mexicana (NOM-062-Z00-1999) published on 22 August, 2009.
(§2) CD1 female mice 6–8 weeks old were infected with T. cruzi bloodstream trypomastigotes of the INC-5 and NINOA strains. The course of infection continued for 4–6 weeks. At the peak of parasitemia blood was obtained by cardiac puncture using sodium heparin as an anticoagulant. The blood was adjusted to 1 × 10^6 bloodstream trypomastigotes/mL.
(§3) In each well of the 96-well plate, 195 μL of infected blood and 5 μL of quinoxaline 1,4-di-N-oxide derivatives or reference drug dilutions were seeded, with each well reaching a final volume of 200 µL. Each assay was performed in triplicate. Initially, all compounds were tested at 50 μg/mL. […] As a negative control of lysis, wells with untreated blood trypomastigotes were used, and as a positive control, wells with the reference drugs were used. The microplates were incubated at 4 °C for 24 h. Bloodstream trypomastigotes were quantified by the method of Brener-Pizzi, 5 μL of blood were placed on a slide and covered with a coverslip 13 × 13 mm. The mobile protozoa were counted in 15 fields at 40× magnification using an optical microscope. The percentage lysis was determined by comparing the remaining trypomastigotes against the negative control. LC50 was determined with the Probit statistical tool. The results were later converted to micromolar units.

[2] = test system: T. cruzi bloodstream trypomastigotes NINOA strain; assay: microbe, parasite or virus in culture; format: cell-based; conditions: Trypanosoma cruzi
Description: as §1, §2, §3

recombinant T. cruzi TR = biological target: T1, recombinant T. cruzi TR (Trypanosoma cruzi, UniProt P28593); assay: TR enzyme inhibition (NADPH consumption at 340 nm); format: biochemical; conditions: for inhibition at 5 µM: inhibitor 5 µM; for inhibition at 10 µM: inhibitor 10 µM; for inhibition at 20 µM: inhibitor 20 µM; for inhibition at 40 µM: inhibitor 40 µM; for inhibition at 60 µM: inhibitor 60 µM; for inhibition at 80 µM: inhibitor 80 µM, T-085 precipitates in the assay at 80 µM
T1 construct: made in house
Description: Trypanothione disulfide (TS2) and recombinant T. cruzi TR were prepared following published procedures. Recombinant human glutathione reductase (GR) was kindly provided by Dr. Heiner Schirmer, Heidelberg Germany. Stock solutions (5 mM) of the inhibitors were prepared in DMSO. The kinetic analyses were conducted using a Jasco V650 spectrophotometer. All enzymatic tests were performed in polystyrene optical cuvettes (10 × 4 × 45 mm). TR activity was measured at 25 °C in a total volume of 1 mL TR assay buffer (40 mM HEPES, 1 mM EDTA, pH 7.5 [47]) containing 100 μM NADPH and 5–10 mU enzyme in the absence and presence of the inhibitor. Each assay contained a total of 5% DMSO. The reaction was started by adding TS2 and NADPH consumption was followed at 340 nm.
Five compound concentrations were used ranging from 100–5 μM. All measurements were performed twice in three independent series. Enzyme activity was plotted versus increasing inhibitor concentrations. IC50 values were calculated using the four-parameter equation model 205 and the option “unlock” from the XLfit add-in (IDBS, Guildford, United Kingdom) for Excel (Microsoft Corporation, Redmond, WA, USA).
The type of inhibition and the inhibitor constants were derived from Lineweaver-Burk plot. The activity of TR was measured in the absence and presence of two to three constant concentrations of inhibitor varying the concentration of TS2 (20, 40, 60, 100 and 200 µM). The inhibitory constant Ki was calculated from the direct plot using nonlinear least-squares data fitting in Excel spreadsheet.

[3] = Cytotoxicity assay (Alamar Blue) on macrophages; format: cell-based, murine; conditions: mouse, J774A.1 macrophages, mean and SD of triplicate
Description: The murine macrophage cell line J774.A1 was maintained in culture flasks with RPMI 1640 medium supplemented with 10% FBS, 1% MEM-NEAA medium (Gibco) and 100 U/mL antibiotic-antifungal mixture (Gibco). Cells were incubated at 37 °C with 5% CO2 and humidity. Trypsinized J774.A1 macrophages were washed and viability was assessed by the trypan blue dye (Sigma-Aldrich, Toluca, Edo de Mexico, Mexico) exclusion assay. In a 96-well microplate, 50,000 macrophages were seeded per well and a dose-response assay was performed. Compounds were evaluated using six-fold serial dilutions ranging from 100 µg/mL to 0.3 µg/mL of final concentration. Each compound was tested in triplicate. After 20 h incubation, Alamar Blue was added (10% v/v) and cells were incubated for an additional 4 h period. Results were obtained as previously described and CC50 was calculated. As a negative control of cytotoxicity, cells were incubated only in the presence of 0.1% DMSO [39, 40].

[4] = 40 µM TS2, read-out: % Inhibition of TR at 40 µM [TS2]
[5] = 100 µM TS2, read-out: % Inhibition of TR at 100 µM [TS2]

T1 sequence (P28593 whole entry): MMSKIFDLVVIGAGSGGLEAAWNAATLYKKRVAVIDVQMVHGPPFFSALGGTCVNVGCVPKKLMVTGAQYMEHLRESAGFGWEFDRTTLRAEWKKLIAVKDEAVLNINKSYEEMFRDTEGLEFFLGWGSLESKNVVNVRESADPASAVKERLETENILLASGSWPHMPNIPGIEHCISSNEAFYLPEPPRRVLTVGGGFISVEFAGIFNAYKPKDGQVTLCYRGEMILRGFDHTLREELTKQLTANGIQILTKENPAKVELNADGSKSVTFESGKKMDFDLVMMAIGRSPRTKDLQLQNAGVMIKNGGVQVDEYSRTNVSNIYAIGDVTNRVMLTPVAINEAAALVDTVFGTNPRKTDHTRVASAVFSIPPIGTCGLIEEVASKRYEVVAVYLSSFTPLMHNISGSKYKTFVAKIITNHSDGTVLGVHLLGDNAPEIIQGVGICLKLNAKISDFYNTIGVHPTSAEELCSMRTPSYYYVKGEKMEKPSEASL

type of inhibition (recombinant T. cruzi TR; TcTR, Lineweaver-Burk plot): non-competitive inhibitor
Ki (recombinant T. cruzi TR; TcTR, Lineweaver-Burk plot, inhibitor 15 and 50 µM, TS2 20-200 µM): 35 µM
inhibition at 5 µM (recombinant T. cruzi TR; [4]): 20.3%
inhibition at 5 µM (recombinant T. cruzi TR; [5]): 15.2%
inhibition at 10 µM (recombinant T. cruzi TR; [4]): 34.1%
inhibition at 10 µM (recombinant T. cruzi TR; [5]): 24.7%
inhibition at 20 µM (recombinant T. cruzi TR; [4]): 45.7%
inhibition at 20 µM (recombinant T. cruzi TR; [5]): 36.1%
inhibition at 40 µM (recombinant T. cruzi TR; [4]): 55.1%
inhibition at 40 µM (recombinant T. cruzi TR; [5]): 48.1%
inhibition at 60 µM (recombinant T. cruzi TR; the highest concentration that could be measured, 100 μM or 40 μM TS2, read-out: % inhibition of TR): 60%
inhibition at 60 µM (recombinant T. cruzi TR; [4]): 60.9%
inhibition at 60 µM (recombinant T. cruzi TR; [5]): 60.1%
inhibition at 80 µM (recombinant T. cruzi TR; [4]): 44%
inhibition at 80 µM (recombinant T. cruzi TR; [5]): 33%
IC50 (recombinant T. cruzi TR; inhibitor 5-60 μM, read-out: IC50 against TcTR): 50 µM
SMILES: CC(C)OC(=O)c1ccc2c(c1)[n+]([O-])c(C(=O)C(C)C)c(C(F)(F)F)[n+]2[O-] [Compound T-085, Isopropyl 2-isobutyryl-3-trifluoromethylquinoxaline-7-carboxylate 1,4-di-N-oxide]
CC50 ([1]; Trypanosoma cruzi, 24 h): 73 µM
killing at 50 µg/mL ([1]; Trypanosoma cruzi, 50 μg/mL, 24 h at 4 °C, infected mouse blood, read-out: % Lysis at 50 μg/mL INC-5 Strain): 76.2 ± 1.2%
CC50 [1]: 73.1 ± 12.4 µM
LC50 ([2]; 24 h): 59.9 ± 7.9 µM
killing at 50 µg/mL ([2]; 50 μg/mL, 24 h at 4 °C, infected mouse blood, read-out: % Lysis at 50 μg/mL NINOA Strain): 74.2 ± 6.4%
CC50 at 24 h [3]: 10.4 ± 0.8 µM
